Where “and” joins values, the source holds several entries; their conditions need not be identical. Equal entries are not always repeated.
Key:
cytotoxic T lymphocytes = assay: Activation of cytotoxic T lymphocytes in human blood (FACS, CD8/CD69); type: cell-based; details: for CD8, percent cytotoxic T cells of total cells (events) / CD8/CD69, percent activated cytotoxic T cells of total cytotoxic T cells: 30 min; for Effect on number of activated cytotoxic T lymphocytes (CD8/CD69), in words: 0.1 and 2.5 microM
Method: (§1) The effects of picropodophyllin and deoxypicropodophyllin on the activation of subgroups of lymphocytes in human blood were determined by flow cytometry (FACS). Lymphocytes from human peripheral blood were purified by ficoll-hypaque (Pharmacia, Amersham) and then distributed in FACS tubes at 500,000 cells in 0.5 mL per tube. Cells were kept in RPMI medium (Life technologies) supplemented with 10% bovine serum […] (BGS; Sigma), 1% penicillin-streptomycin (Sigma) and 1% glutamine (Sigma). The cells were incubated for 30 min at room temperature in the absence (control lymphocytes) or presence of picropodophyllin and deoxypicropodophyllin at 0.1 and 2.5 microM concentrations. After washing, the cells were stained 15 min for the surface molecules CD4, CD8 and CD69. CD4 and CD8 are expressed by two subsets of T lymphocytes, i.e. helper T cells and cytotoxic T cells, respectively, and CD69 is a lymphocyte activation marker. The staining was performed with the following fluorophore conjugated antibodies: anti-CD4PB; anti-CD8APC; anti-CD69APCCy7 (Beckton Dickinson). The cells were then washed with PBS containing 2% FCS and 0.05% NaN3 (FACS buffer) and then stained with […] (PI)/FITC Annexin V (Beckton Dickinson) to determine apoptosis of cells, and after incubation for another 15 min and washing, the cells were analysed by flow cytometry (FACSCalibur; Beckton Dickinson). Data were evaluated using the Cellquest computer software (Beckton Dickinson).

blood lymphocytes [1] = assay: Effect of two-week treatment on blood lymphocytes in rats; type: in vivo, rats (Sprague-Dawley); details: 20 mg/kg/12 h intraperitoneally, 14 days
Method: In this experiment, healthy 200-grams rats (Sprague-Dawley) were treated with picropodophyllin by intraperitoneal injections twice daily, the dose being 20 mg/kg/12 h, using DMSO/sunflower oil, 9:1, as vehicle. The control group was treated with the vehicle only (totally per day: 200 μL DMSO). Each group included 5 rats. After treatment for 14 days, the rats were sacrificed and blood samples were taken. The number of blood cells in the samples was counted using an Advia 120 Hematology system from Bayer AB (Diagnostica).

mice = assay: Systemic toxicity of trans and cis isomers of cyclolignans in mice; details: nude mice; for Survival (in words) / Toxic signs (in words): 28 mg/kg/d intraperitoneally daily for 5 days; for No. of surviving mice/No. of treated mice: 28 mg/kg/d intraperitoneally daily
Method: The experiment was carried out to determine the significance of the stereochemistry of cyclolignans for their general toxicity by investigating systemic toxic effects of trans and cis isomers of cyclolignans in mice. Five-week old pathogen-free nude mice (nu/nu) were used and housed within plastic isolators in a sterile facility. Experimental treatments with podophyllotoxin, deoxypodophyllotoxin, picropodophyllin and deoxypicropodophyllin were performed by injecting each compound dissolved in 10 microL of a mixture of DMSO and saline intraperitoneally daily for 5 days. The dose injected once daily was 28 mg/kg/d and 6 mice were used for each drug. Control mice were treated with the vehicle only.
The mice were checked daily for signs of discomfort, diseases and weight loss.

blood lymphocytes [2] = assay: Effect of seven-day treatment on blood lymphocytes in mice; type: in vivo; details: 20 mg/kg/12 h intraperitoneally, 7 days
Method: In this experiment, healthy 20-gram mice were treated with picropodophyllin by intraperitoneal injections twice daily, the dose being 20 mg/kg/12 h using DMSO/sunflower oil, 9:1, as vehicle. The control group was treated with the vehicle only (totally per day: 20 μL DMSO/oil). Each group included 3 mice. After treatment for 7 days, the mice were sacrificed and blood samples were taken. The number of blood cells in the samples was counted using an Advia 120 Hematology system from Bayer AB (Diagnostica).

helper T lymphocytes = assay: Activation of helper T lymphocytes in human blood (FACS, CD4/CD69); type: cell-based; details: 30 min
Method: as §1

[3] = tested on: lymphocytes from human peripheral blood; assay: Apoptosis of human blood lymphocytes (PI/Annexin V, FACS); type: cell-based; details: 30 min
Method: as §1

human T lymphocytes = assay: 3H-thymidine incorporation, Concanavalin A stimulated proliferation of lymphocytes from patients; type: cell-based; details: for 3H-thymidine in cyclolignan-treated lymphocytes (% of 3H-thymidine in control lymphocytes): 2.5 microM, Con A three days, 18 h incorporation; for Proliferation of peripheral blood T lymphocytes, in words: lymphocytes of patients with autoimmune diseases
Method: The effects of picropodophyllin and deoxypicropodophyllin on human T lymphocyte function, i.e. the proliferation capacity of human T lymphocytes in response to an antigen/mitogen, were measured using a time course tritium labelled thymidine incorporation assay. Lymphocytes from peripheral blood of patients were purified by ficoll-hypaque (Pharmacia, Amersham) and were distributed in 96 well plates at 100,000 cells per well, and all samples were in triplicates. Cells were kept in RPMI 1640 medium (Life technologies) supplemented with 10% human serum (Sigma), 100 units/mL penicillin (Sigma), 100 microg/mL streptomycin (Sigma) and 2 mM L-glutamine (Sigma). Proliferation of lymphocytes was stimulated with the T lymphocyte mitogen Concanavalin A (Con A) 10 microg/mL (Sigma). After three days incubation with Con A, with and without the cyclolignans, 1 microCi ^3H-thymidine (Amersham) was added to each well, and after another eighteen hours cells were harvested and washed, and the amount of ^3H-thymidine incorporated into newly synthesized DNA determined by scintillation counting.

[4] = MS (multiple sclerosis) patients
[5] = RA (rheumatoid arthritis) patients
[6] = UC (ulcerative colitis) patients

Structure (SMILES)	CD8, percent cytotoxic T cells of total cells (events) (cytotoxic T lymphocytes; 0.1 μM)	CD8/CD69, percent activated cytotoxic T cells of total cytotoxic T cells (cytotoxic T lymphocytes; 0.1 μM)	CD8, percent cytotoxic T cells of total cells (events) (cytotoxic T lymphocytes; 2.5 μM)	CD8/CD69, percent activated cytotoxic T cells of total cytotoxic T cells (cytotoxic T lymphocytes; 2.5 μM)	Effect on number of activated cytotoxic T lymphocytes (CD8/CD69), in words (cytotoxic T lymphocytes)	Survival (in words) (mice)	Toxic signs (in words) (mice)	No. of surviving mice/No. of treated mice (mice; Day 1)	No. of surviving mice/No. of treated mice (mice; Day 2)	No. of surviving mice/No. of treated mice (mice; Day 3)	No. of surviving mice/No. of treated mice (mice; Day 4)	No. of surviving mice/No. of treated mice (mice; Day 5)	CD4, percent helper T cells of total cells (events) (helper T lymphocytes; 0.1 μM)	CD4/CD69, percent activated helper T cells of total helper T cells (helper T lymphocytes; 0.1 μM)	CD4, percent helper T cells of total cells (events) (helper T lymphocytes; 2.5 μM)	CD4/CD69, percent activated helper T cells of total helper T cells (helper T lymphocytes; 2.5 μM)	ANNEXIN V, percent of total cells ([3]; 0.1 μM)	PI ANNEXIN V, percent of total cells ([3]; 0.1 μM)	PI, percent of total cells ([3]; 0.1 μM)	ANNEXIN V, percent of total cells ([3]; 2.5 μM)	other results
COc1cc([C@@H]2c3cc4c(cc3[C@H](O)[C@H]3COC(=O)[C@@H]23)OCO4)cc(OC)c1OC [Picropodophyllin]	35.0%	3.2%	34.8%	1.8%	dose-dependently decreased	survived the whole 5-day period	did not exhibit any obvious toxic signs	6/6	6/6	6/6	6/6	6/6	36.7%	11.0%	36.3%	9.7%	0.9%	9.4%	0%	0.9%	Lymphocytes in blood (blood lymphocytes [1]; individual rats, listed as PPP, 20 mg/kg): 3.16e+09 L⁻¹ and 4.5e+08 L⁻¹ and 4.2e+09 L⁻¹ and 2.8e+09 L⁻¹ and 3.86e+09 L⁻¹; Decrease of blood lymphocytes (blood lymphocytes [1]; rats, versus controls): more than 50%; Lymphocytes in blood (blood lymphocytes [2]; individual mice, listed as PPP, 20 mg/kg): 3e+07 L⁻¹ and 1e+07 L⁻¹ and 0 L⁻¹; Effect on number of blood lymphocytes (in words) (blood lymphocytes [2]; mice): reduced the number of blood lymphocytes; PI ANNEXIN V, percent of total cells ([3]; 2.5 μM): 10.5%; PI, percent of total cells ([3]; 2.5 μM): 0%; 3H-thymidine in cyclolignan-treated lymphocytes (% of 3H-thymidine in control lymphocytes) (human T lymphocytes; AD patients): 7%; 3H-thymidine in cyclolignan-treated lymphocytes (% of 3H-thymidine in control lymphocytes) (human T lymphocytes; CD (Crohn's disease) patients): 8%; 3H-thymidine in cyclolignan-treated lymphocytes (% of 3H-thymidine in control lymphocytes) (human T lymphocytes; [4]): 10%; 3H-thymidine in cyclolignan-treated lymphocytes (% of 3H-thymidine in control lymphocytes) (human T lymphocytes; [5]): 15%; 3H-thymidine in cyclolignan-treated lymphocytes (% of 3H-thymidine in control lymphocytes) (human T lymphocytes; [6]): 13%; Proliferation of peripheral blood T lymphocytes, in words (human T lymphocytes): suppressed
COc1cc([C@@H]2c3cc4c(cc3C[C@H]3COC(=O)[C@H]32)OCO4)cc(OC)c1OC [Deoxypicropodophyllin]	34.7%	4.1%	32.8%	0.9%	dose-dependently decreased	survived the whole 5-day period	did not exhibit any obvious toxic signs	6/6	6/6	6/6	6/6	6/6	36.7%	13.2%	37.1%	7.5%	1.3%	9.2%	0%	1.5%	PI ANNEXIN V, percent of total cells ([3]; 2.5 μM): 9.3%; PI, percent of total cells ([3]; 2.5 μM): 0%; 3H-thymidine in cyclolignan-treated lymphocytes (% of 3H-thymidine in control lymphocytes) (human T lymphocytes; AD (Alzheimer's disease) patients): 9%; 3H-thymidine in cyclolignan-treated lymphocytes (% of 3H-thymidine in control lymphocytes) (human T lymphocytes; CD (Crohn's disease) patients): 8%; 3H-thymidine in cyclolignan-treated lymphocytes (% of 3H-thymidine in control lymphocytes) (human T lymphocytes; [4]): 8%; 3H-thymidine in cyclolignan-treated lymphocytes (% of 3H-thymidine in control lymphocytes) (human T lymphocytes; [5]): 7%; 3H-thymidine in cyclolignan-treated lymphocytes (% of 3H-thymidine in control lymphocytes) (human T lymphocytes; [6]): 10%; Proliferation of peripheral blood T lymphocytes, in words (human T lymphocytes): suppressed
COc1cc([C@@H]2c3cc4c(cc3C[C@H]3COC(=O)[C@@H]32)OCO4)cc(OC)c1OC [Deoxypodophyllotoxin, reference compound]						after 3 days they were all dead	serious toxic signs on the second day	6/6	4/6	0/6	0/6	0/6									
COc1cc([C@@H]2c3cc4c(cc3[C@H](O)[C@H]3COC(=O)[C@H]23)OCO4)cc(OC)c1OC [Podophyllotoxin, reference compound]						on the second day all of the animals were dead	became quickly sick	2/6	0/6	0/6	0/6	0/6									
